Experimental data published in US6479435B1, “Diaryl ethers and processes for their preparation and herbicidal and desiccant compositions containing them” (ISK Americas Incorporated, priority 1997, dated 2002).

Columns and labels:
Assay type in all cases: in vivo
[1] = tested on: lambsquarters (Chenopodium album, CHEAL); test: Post-emerge greenhouse herbicide test, phytotoxicity rating; conditions: Chenopodium album, post-emergence, 336 h, 14 days after application, scale 0-100; for pest or weed control at 63 g/ha: rate 63 g ai/ha; for pest or weed control at 500 g/ha: rate 500 g ai/ha
Outline: (§1)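 Plants at the 2-3 leaf stage, sown 8-21 days earlier, were track-sprayed post-emergence with compound in acetone plus 0.25% v/v non-ionic surfactant at 63-1000 g ai/ha (187 l/ha). Damage was rated at 14 days on a 0-100 scale (0 none, 100 all plants dead), for both crop injury and weed control.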

[2] = tested on: green foxtail (Setaria viridis, SETVI); test: as above; conditions: Setaria viridis, post-emergence, 336 h, 14 days after application, scale 0-100; for pest or weed control at 63 g/ha: rate 63 g ai/ha; for pest or weed control at 500 g/ha: rate 500 g ai/ha
Outline: as §1

[3] = tested on: Johnsongrass (Sorghum halepense, SORHA); test: as above; conditions: Sorghum halepense, post-emergence, 336 h, 14 days after application, scale 0-100; for pest or weed control at 63 g/ha: rate 63 g ai/ha; for pest or weed control at 500 g/ha: rate 500 g ai/ha
Outline: as §1

[4] = tested on: sicklepod (Cassia obtusifolia, CASOB); test: as above; conditions: Senna obtusifolia, post-emergence, 336 h, 14 days after application, scale 0-100; for pest or weed control at 63 g/ha: rate 63 g ai/ha; for pest or weed control at 500 g/ha: rate 500 g ai/ha
Outline: as §1

[5] = tested on: redroot pigweed (Amaranthus retroflexus, AMARE); test: as above; conditions: Amaranthus retroflexus, post-emergence, 336 h, 14 days after application, scale 0-100; for pest or weed control at 63 g/ha: rate 63 g ai/ha; for pest or weed control at 500 g/ha: rate 500 g ai/ha
Outline: as §1

[6] = tested on: large crabgrass (Digitaria sanguinalis, DIGSA); test: as above; conditions: Digitaria sanguinalis, post-emergence, 336 h, 14 days after application, scale 0-100; for pest or weed control at 63 g/ha: rate 63 g ai/ha; for pest or weed control at 500 g/ha: rate 500 g ai/ha
Outline: as §1

[7] = tested on: lambsquarters (Chenopodium album, CHEAL); test: Pre-emerge greenhouse herbicide test, phytotoxicity rating; conditions: Chenopodium album, pre-emergence, 336 h, 14 days after application, rating scale 0-100; for pest or weed control at 125 g/ha: Rate 125 g al/ha; for pest or weed control at 500 g/ha: Rate 500 g al/ha
Outline: (§2)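 Seeds sown in sandy loam one day before track-sprayer application of acetone solutions at 125–1000 g ai/ha (187 l/ha), then surface-watered to incorporate and bottom-watered. Injury scored visually at 14 days on a 0–100 scale (0 no damage, 100 complete death).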

[8] = tested on: velvetleaf (Abutilon theophrasti, ABUTH); test: as above; conditions: Abutilon theophrasti, pre-emergence, 336 h, 14 days after application, rating scale 0-100; for pest or weed control at 125 g/ha: Rate 125 g al/ha; for pest or weed control at 500 g/ha: Rate 500 g al/ha
Outline: as §2

[9] = tested on: ivyleaf morningglory (Ipomoea hederacea, IPOHE); test: as above; conditions: Ipomoea, pre-emergence, 336 h, 14 days after application, rating scale 0-100; for pest or weed control at 125 g/ha: Rate 125 g al/ha; for pest or weed control at 500 g/ha: Rate 500 g al/ha
Outline: as §2

[10] = tested on: green foxtail (Setaria viridis, SETVI); test: as above; conditions: Setaria viridis, pre-emergence, 336 h, 14 days after application, rating scale 0-100; for pest or weed control at 125 g/ha: Rate 125 g al/ha; for pest or weed control at 500 g/ha: Rate 500 g al/ha
Outline: as §2

[11] = tested on: Johnsongrass (Sorghum halepense, SORHA); test: as above; conditions: Sorghum halepense, pre-emergence, 336 h, 14 days after application, rating scale 0-100; for pest or weed control at 125 g/ha: Rate 125 g al/ha; for pest or weed control at 500 g/ha: Rate 500 g al/ha
Outline: as §2

[12] = tested on: sicklepod (Cassia obtusifolia, CASOB); test: as above; conditions: Senna obtusifolia, pre-emergence, 336 h, 14 days after application, rating scale 0-100; for pest or weed control at 125 g/ha: Rate 125 g al/ha; for pest or weed control at 500 g/ha: Rate 500 g al/ha
Outline: as §2

[13] = tested on: redroot pigweed (Amaranthus retroflexus, AMARE); test: as above; conditions: Amaranthus retroflexus, pre-emergence, 336 h, 14 days after application, rating scale 0-100; for pest or weed control at 125 g/ha: Rate 125 g al/ha; for pest or weed control at 500 g/ha: Rate 500 g al/ha
Outline: as §2

[14] = tested on: large crabgrass (Digitaria sanguinalis, DIGSA); test: as above; conditions: Digitaria sanguinalis, pre-emergence, 336 h, 14 days after application, rating scale 0-100; for pest or weed control at 125 g/ha: Rate 125 g al/ha; for pest or weed control at 500 g/ha: Rate 500 g al/ha
Outline: as §2

[15] = tested on: barnyardgrass (Echinochloa crusgalli, ECHCG); test: as above; conditions: Echinochloa crus-galli, pre-emergence, 336 h, 14 days after application, rating scale 0-100; for pest or weed control at 125 g/ha: Rate 125 g al/ha; for pest or weed control at 500 g/ha: Rate 500 g al/ha
Outline: as §2

SMILES	pest or weed control at 63 g/ha [1] [%]	pest or weed control at 500 g/ha [1] [%]	pest or weed control at 63 g/ha [2] [%]	pest or weed control at 500 g/ha [2] [%]	pest or weed control at 63 g/ha [3] [%]	pest or weed control at 500 g/ha [3] [%]	pest or weed control at 63 g/ha [4] [%]	pest or weed control at 500 g/ha [4] [%]	pest or weed control at 63 g/ha [5] [%]	pest or weed control at 500 g/ha [5] [%]	pest or weed control at 63 g/ha [6] [%]	pest or weed control at 500 g/ha [6] [%]	pest or weed control at 125 g/ha [7] [%]	pest or weed control at 500 g/ha [7] [%]	pest or weed control at 125 g/ha [8] [%]	pest or weed control at 500 g/ha [8] [%]	pest or weed control at 125 g/ha [9] [%]	pest or weed control at 500 g/ha [9] [%]	pest or weed control at 125 g/ha [10] [%]	pest or weed control at 500 g/ha [10] [%]	also measured
Nn1c(C(F)(F)F)cc(=O)n(-c2cc(Oc3ccc(Cl)cn3)c(Cl)cc2F)c1=O [Compound 9-3, 1-Amino-3-[4-chloro-2-fluoro-5-(5-chloro-2-pyridyloxy)phenyl]-6-trifluoromethyl-1,2,3,4-tetrahydropyrimidine-2,4-dione]	95	100	20	95	10	90	20	95	100	100	30	95	100	100	100	100	40	100	100	100	pest or weed control at 125 g/ha [11]: 70%; pest or weed control at 500 g/ha [11]: 99%; pest or weed control at 125 g/ha [12]: 0%; pest or weed control at 500 g/ha [12]: 70%; pest or weed control at 125 g/ha [13]: 100%; pest or weed control at 500 g/ha [13]: 100%; pest or weed control at 125 g/ha [14]: 95%; pest or weed control at 500 g/ha [14]: 100%; pest or weed control at 125 g/ha [15]: 30%; pest or weed control at 500 g/ha [15]: 99%
Nn1c(C(F)(F)F)cc(=O)n(-c2cc(Oc3cccc(Cl)n3)c(Cl)cc2F)c1=O [Compound 9-5, 1-Amino-3-[4-chloro-2-fluoro-5-(6-chloro-2-pyridyloxy)phenyl]-6-trifluoromethyl-1,2,3,4-tetrahydropyrimidine-2,4-dione]	90	100	30	90	50	100	100	100	100	100	0	80	100	100	100	100	70	50	100	100	pest or weed control at 125 g/ha [11]: 95%; pest or weed control at 500 g/ha [11]: 100%; pest or weed control at 125 g/ha [12]: 10%; pest or weed control at 500 g/ha [12]: 50%; pest or weed control at 125 g/ha [13]: 100%; pest or weed control at 500 g/ha [13]: 100%; pest or weed control at 125 g/ha [14]: 95%; pest or weed control at 500 g/ha [14]: 100%; pest or weed control at 125 g/ha [15]: 90%; pest or weed control at 500 g/ha [15]: 100%
Nn1c(C(F)(F)F)cc(=O)n(-c2cc(Oc3nc(F)c(F)cc3F)c(Cl)cc2F)c1=O [Compound 9-6, 1-Amino-3-[4-chloro-2-fluoro-5-(3,5,6-trifluoro-2-pyridyloxy)phenyl]-6-trifluoromethyl-1,2,3,4-tetrahydropyrimidine-2,4-dione]	100	100	20	100	100	100	40	100	100	100	90	100	100	100	100	100	90	95	100	100	pest or weed control at 125 g/ha [11]: 90%; pest or weed control at 500 g/ha [11]: 90%; pest or weed control at 125 g/ha [12]: 90%; pest or weed control at 500 g/ha [12]: 100%; pest or weed control at 125 g/ha [13]: 100%; pest or weed control at 500 g/ha [13]: 100%; pest or weed control at 125 g/ha [14]: 100%; pest or weed control at 500 g/ha [14]: 100%; pest or weed control at 125 g/ha [15]: 90%; pest or weed control at 500 g/ha [15]: 100%
Nn1c(C(F)(F)F)cc(=O)n(-c2cc(Oc3ncccc3C(F)(F)F)c(Cl)cc2F)c1=O [Compound 9-7, 1-Amino-3-[4-chloro-2-fluoro-5-(3-trifluoromethyl-2-pyridyloxy)phenyl]-6-trifluoromethyl-1,2,3,4-tetrahydropyrimidine-2,4-dione]	100	100	40	70	80	90	90	90	100	100	10	30	100	100	100	100	70	100	100	100	pest or weed control at 125 g/ha [11]: 90%; pest or weed control at 500 g/ha [11]: 100%; pest or weed control at 125 g/ha [12]: 40%; pest or weed control at 500 g/ha [12]: 100%; pest or weed control at 125 g/ha [13]: 100%; pest or weed control at 500 g/ha [13]: 100%; pest or weed control at 125 g/ha [14]: 100%; pest or weed control at 500 g/ha [14]: 100%; pest or weed control at 125 g/ha [15]: 90%; pest or weed control at 500 g/ha [15]: 100%
